Patent US4539326A, “5-Oxo-5H-(1)benzopyrano(2,3-b)pyridine derivatives, their production and use as anti-inflammatory agents” (Takeda Chemical Industries, Ltd., priority 1982, dated 1985)

Key:
adjuvant arthritis = test: Action of inhibiting adjuvant arthritis (M. butyricum adjuvant, oral, 14 days); type: in vivo, male Sprague-Dawley rats (6-week old); details: for Systemic inflammation score / Increase in body weight / Weight of thymus: 50 mg/kg oral once a day; for Systemic inflammation score: max score 20; for Increase in body weight / Weight of thymus: day 14; for Restraint of the increase in body weight (result in words) / Systemic inflammation score (result in words) / Weight of thymus (result in words): oral once a day for 14 days, compared with control group
Protocol: As experimental animal, male Sprague-Dawley rats (6-week old) were used.
(§1) Adjuvant arthritis was induced by suspending killed cells of mycobacteria (M. butyricum strain) in liquid paraffin and injecting the rats with the resultant suspension beneath the skin of the hind-paw. The suspension obtained by suspending 70 mg of the test specimen [disodium(7-ethyl-3-carboxylato-5-oxo-5H-[1]benzopyrano[2,3-b]pyridin-2-yl)acetate] in 7 ml of 4% gum arabic was administered orally to rats once a day at a rate of 0.5 ml per 100 g of body weight for the consecutive 14 days after the injection of adjuvant. The degrees or severities of the inflammations induced on the other hind paw not injected with adjuvant, front paws, tail and ears were graded 1 to 5, and the grades were summed up for each animal, with the highest mark in total for the four body spots being 20. In addition, effects exerted by the administration on the increase in body weight (difference between the body weights measured after 14 days and on the day of sensitization) and the weight of thymus were investigated, and were compared with those obtained with the control group.
as §1, with “in liquid paraffine and injecting” for “in liquid paraffin and injecting”, “skin of hind-paw. The” for “skin of the hind-paw. The”, “test specimen [ethyl(7-ethyl-3-ethoxycarbonyl-5-oxo-5H-[1]benzopyrano[2,3-b]pyridin-2-yl)acetate] in 7” for “test specimen [disodium(7-ethyl-3-carboxylato-5-oxo-5H-[1]benzopyrano[2,3-b]pyridin-2-yl)acetate] in 7”

phenylquinone writhing = test: mouse phenylquinone writhing method (analgesic activity); type: in vivo
[1] = tested on: carrageenin-induced edema; test: rat carrageenin-induced edema method (antiinflammatory activity); type: in vivo

CCOC(=O)Cc1nc2oc3ccc(CC)cc3c(=O)c2cc1C(=O)OCC [ethyl(7-ethyl-3-ethoxycarbonyl-5-oxo-5H-[1]benzopyrano[2,3-b]pyridin-2-yl)acetate]
Systemic inflammation score (adjuvant arthritis; Experiment 2 (Table 2), day 12 after sensitization, control 6.7 ± 0.8, ** P <0.01): 3.3 ± 0.7
Increase in body weight (adjuvant arthritis; Experiment 2 (Table 2), control 42.5 ± 3.2): 43.3 ± 8.6 g
Weight of thymus (adjuvant arthritis; Experiment 2 (Table 2), control 286.5 ± 34.3): 444.2 ± 69.9 mg
Systemic inflammation score (adjuvant arthritis; Experiment 2 (Table 2), day 14 after sensitization, control 8.0 ± 0.5, ** P <0.01): 4.0 ± 1.0
Restraint of the increase in body weight (result in words) (adjuvant arthritis): improve the systemic inflammation score and the restraint of the increase in body weight
Systemic inflammation score (result in words) (adjuvant arthritis): improve the systemic inflammation score
Weight of thymus (result in words) (adjuvant arthritis): tendency to increase the weight of thymus

CCc1ccc2oc3nc(CC(=O)O)c(C(=O)O)cc3c(=O)c2c1 [disodium(7-ethyl-3-carboxylato-5-oxo-5H-[1]benzopyrano[2,3-b]pyridin-2-yl)acetate]
Systemic inflammation score (adjuvant arthritis; Experiment 1 (Table 1), day 12 after sensitization, control 7.0 ± 0.9, * P <0.05): 3.7 ± 1.1
Increase in body weight (adjuvant arthritis; Experiment 1 (Table 1), control 42.2 ± 2.5): 50.0 ± 3.1 g
Weight of thymus (adjuvant arthritis; Experiment 1 (Table 1), control 211.7 ± 21.5, * P <0.05): 375 ± 52.0 mg
Systemic inflammation score (adjuvant arthritis; Experiment 1 (Table 1), day 14 after sensitization, control 8.8 ± 0.7, * P <0.05): 4.7 ± 1.6
Restraint of the increase in body weight (result in words) (adjuvant arthritis): improve the systemic inflammation score and the restraint of the increase in body weight
Systemic inflammation score (result in words) (adjuvant arthritis): improve the systemic inflammation score
Weight of thymus (result in words) (adjuvant arthritis): increase the weight of thymus
Analgesic activity (phenylquinone writhing): neither to exhibit the antiinflammatory activity in the rat carrageenin-induced edema method and the analgesic activity
Antiinflammatory activity [1]: neither to exhibit the antiinflammatory activity
